Experimental data reported in patent EP4635966A1, “SYNTHETIC VARIANTS OF THE GANGLIOSIDE NGCGM3 AND USE THEREOF IN CANCER TREATMENT” (Centro de Inmunologia Molecular, priority 2022, dated 2024).

Key:
iNKT cells = test: In vivo iNKT cell activation: serum IFNγ by ELISA after i.p. injection; design: species or system C57BL/6 mice; conditions: 200 µg i.p.; blood 16 hours after administration; Figure 7
Protocol: C57BL/6 mice were injected intraperitoneally with 200 µg of natural NGcGM3 ganglioside, NGcGM3 d18:1-C24:1, NGcGM3 d18:1-C 18:0 and 2 µg of αGalCer or vehicle (5.6 % sucrose, 0.75 % L-histidine and 0.5 % Tween-20) and blood was drawn 16 hours after the administration. Serum IFNγ levels were assessed by ELISA as an indirect measure of iNKT cell activation (Mouse IFNy ELISA Ready-SET-Go!, eBioscience).

[1] = system: FF13 mouse iNKT-cell hybridoma; test: In vitro iNKT cell activation: bmDC co-cultured with FF13 hybridoma, IL-2 by ELISA; format: cell-based; conditions: for activation of iNKT cell hybridoma (IL-2 secretion): Example 6
Protocol: The FF13 mouse iNKT-cell hybridoma previously described by Schumann J. (Schumann J. Eur J Immunol. 2007, 37:1431-41) was provided by Dr. Lucia Mori (University Hospital Basel, Switzerland) and was cultured in RPMI-1640 medium with GlutaMAX-I and 25 mM HEPES supplemented with 10 % heat-inactivated fetal bovine serum (FBS), 100 U/ml penicillin, 100 µg/ml streptomycin and 55 µM 2-mercaptoethanol.
Mature bone marrow precursor-derived dendritic cells (bmDC) were used as APCs for in vitro iNKT cell activation assays and in vivo adoptive transfer experiments. The bmDCs were obtained according to the previously described protocol of differentiation from bone marrow progenitors in the presence of granulocyte/macrophage colony stimulating factor (GM-CSF) (Inaba K. J ExpMed.1992, 176:1693-1702) with some modifications. Briefly, bone marrow progenitors were isolated from femurs and tibias of C57BL/6 mice and cultured in complete RPMI-1640 medium (RPMI-1640 with GlutaMAX-I, 10% FBS, 100 U/mL penicillin, 100 µg/mL streptomycin and 55 µM 2-mercaptoethanol) supplemented with 20 ng/mL GM-CSF (R&D Systems). The culture was fed with fresh medium on day 3 and maturation of bmDCs was induced with 1 µg/ml LPS. On day 7, cells were harvested and used for iNKT cell activation assays or adoptive transfer.
5x10^4 bmDC were grown in RPMI-1640 medium with 10% FBS in the presence of αGalCer at a concentration of 100 ng/ml and concentrations of 0.1, 1 and 10 µg/ml of natural NGcGM3 and the synthetic variants NGcGM3 d18:1-C24:1, NGcGM3 d18:1-C24:0, NGcGM3 d18:1-C18:0, NGcGM3 d18:1-C18:1 and NGcGM3 d18:1-C18:2 or vehicle (0.1 % DMSO) for 16 -24 hours. Then, 10^5 FF13 hybridoma cells were added and co-cultured with the bmDCs for 24 hours. The culture supernatants were collected and evaluated for IL-2 content by ELISA. […] Differences were observed between the NGcGM3 variants in terms of their antigenicity to iNKT cells based on the length and structure of the fatty acid in the ceramide.
5x10^4 bmDC were cultured in RPMI-1640 medium with 10% FBS in the presence of 10 µg/ml and 1 µg/ml of NGcGM3 d18:1-C24:1 ganglioside, GM3 d18:1-C24:1 or vehicle (0.1% DMSO) for 16-24 hours. Next, 10^5 FF13 hybridoma cells were added and co-cultured with the bmDCs for 24 hours. The culture supernatants were collected and IL-2 content quantified by ELISA. From Figure 8, the synthetic ganglioside variants NGcGM3 and GM3, with identical ceramide structure, have differences in their ability to stimulate iNKT cells.
5x10^4 bmDC were cultured in RPMI-1640 medium with 10% FBS in the presence of 100 ng/ml, 1 µg/ml or 10 µg/ml concentrations of nanoparticles, αGalCer or vehicle (0.1% DMSO) for 16 -24 hours. […] The culture supernatants were collected and IL-2 content quantified by ELISA. […]

EL-4 thymoma cells [2] = test: EL-4 hepatic metastatic spread model (liver weight); format: in vivo, C57BL/6 mice
Protocol: Syngeneic C57BL/6 mice were inoculated intravenously through the tail vein with 2x10^5 EL-4 thymoma cells. Mice were randomized and distributed into groups of 7-9 animals. Experimental groups received intraperitoneal treatments with 200µg of synthetic and natural variants of NGcGM3 or vehicle (5.6% sucrose solution, 0.75% L-histidine and 0.5% Tween20) on days 1, 5 and 9. Animals were sacrificed 12-13 days after tumor inoculation, livers were removed and weighed to determine the level of hepatic metastatic spread. The liver weight of healthy animals of the same age and batch was used as a control.
Syngeneic C57BL/6 mice were inoculated intravenously through the tail vein with 2x10^5 EL-4 thymoma cells; mice were randomized and distributed into groups of 7-9 animals. Experimental groups received intraperitoneal treatments with 10-30 µg of nanoparticles of NGcGM3 d18:1-C24:1, NGcGM3 d18:1-C18:0 and natural NGcGM3 with OMPC of N. meningitidis on days 1, 5 and 9 or Tris/HCl solution (Placebo). Animals were sacrificed 12-13 days after tumor inoculation. To determine the level of liver metastatic spread, their livers were removed and weighed.
Syngeneic C57BL/6 mice were inoculated intravenously through the tail vein with 2x10^5 EL-4 thymoma cells; mice were randomized and distributed into groups of 7-9 animals. On the day following tumor inoculation, 6x10^5 bmDC, previously cultured for 16 hours with vehicle (DMSO 0.1%), NGcGM3 d18:1-C24:1 ganglioside (10 µg/ml) or NGcGM3 extracted from natural source (10 µg/ml) were administered in a single dose, intravenously. Cells were extensively washed with serum-free RPMI-1640 medium to remove excess of lipids before transfer. Animals were sacrificed 12-13 days after tumor inoculation, livers were collected and the level of hepatic metastatic spread was determined by weigh. Livers from healthy mice of the same age and batch were used as a reference. […] Clearly, the transfer of bmDC pulsed with NGcGM3 d18:1-C24:1, induce a significant reduction of EL-4 liver metastasis, compared to the placebo group, in which empty dendritic cells were transferred. […], the transfer of bmDC incubated with ganglioside extracted from a natural source was ineffective. (equal letters p>0.05, different letters p<0.05, ANOVA and Tukey tests). […]
To maintain the depletion of the populations of interest throughout the duration of the experiment, equal doses of depleting antibodies were administered on days 4 and 11 after tumor inoculation. Animals were sacrificed 12-13 days after tumor inoculation, livers were removed and the level of hepatic metastatic spread was determined by weigh. […]

EL-4 thymoma cells [3] = test: Survival of EL-4 tumor-bearing mice; format: in vivo, C57BL/6 mice; conditions: 200 µg i.p. on days 1, 5 and 9; p=0.0005 vs placebo
Protocol: Syngeneic C57BL/6 mice were inoculated intravenously through the tail vein with 2x10^5 EL-4 thymoma cells (ATCC TIB-39); mice were randomized and distributed into groups of 7-9 animals. Experimental groups received intraperitoneal treatments with 200 µg of ganglioside variants NGcGM3 d18:1-C24:1 and NGcGM3 from natural source or vehicle (5.6% sucrose solution, 0.75% L-histidine and 0.5% Tween20) on days 1, 5 and 9. The animals were monitored and sacrificed if they presented any sign or symptom that affected their ability to ingest food and water or compromised their general state of health, according to veterinary criteria.
Syngeneic C57BL/6 mice were inoculated intravenously through the tail vein with 2x10^5 EL-4 thymoma cells; mice were randomized and distributed into groups of 7-9 animals. On the day following tumor inoculation, 6x10^5 bmDC previously cultured for 16 hours with vehicle (DMSO 0.1%), NGcGM3 d18:1-C24:1 ganglioside (10 µg/ml) or the ganglioside extracted from a natural source (10 µg/ml) were administered in a single dose, intravenously. Cells were washed extensively with serum-free RPMI-1640 medium to remove excess of lipids before transfer. Mice were monitored for signs or symptoms that affected their ability to ingest food and water or compromised their general health status, according to veterinary criteria.

P3X63 myeloma cells = test: Subcutaneous P3X63 myeloma tumor growth (tumor volume); format: in vivo, BALB/c mice; conditions: day 5; for TV < 36 mm^3 (percentage distribution of tumor volume of the animals) / TV > 36 mm^3 (percentage distribution of tumor volume of the animals): Example 5, Table 1, i.p. on days 1, 5 and 9 (200 µg NGcGM3 d18:1-C24:1); for TV < 36 mm^3 (percentage distribution of tumor volume of the animals) / TV > 36 mm^3 (percentage distribution of tumor volume of the animals) / TV < 36 mm^3 (percentage distribution of tumor volume of animals) / TV > 36 mm^3 (percentage distribution of tumor volume of animals): 1x10^6 P3X63 s.c.; for growth of subcutaneous tumors: Example 5, p<0.001 for NGcGM3 d18:1-C24:1, p<0.05 for αGalCer vs placebo; for TV < 36 mm^3 (percentage distribution of tumor volume of animals) / TV > 36 mm^3 (percentage distribution of tumor volume of animals): Example 10, Table 2, treatment on days 1, 5 and 9; for antitumor effect (inhibition of tumor growth vs control group): Example 10, p=0.0031 NGcGM3 d18:1-C24:1, p=0.0004 GlycoVax 24:1
Protocol: 1x10^6 P3X63 cells were implanted subcutaneously into syngeneic BALB/c mice. Animals were randomized, divided into groups of 6-8 and received intraperitoneal treatments with 200 µg NGcGM3 d18:1-C24:1 ganglioside, αGalCer or vehicle (5.6% sucrose solution, 0.75% L-histidine and 0.5% Tween20 0.5%) on days 1, 5 and 9. Tumor diameters were measured with a caliper and tumor volume (TV) was calculated according to the formula: TV (mm^3) = π/6 × major diameter × (minor diameter)^2. […] The individual tumor volume values of the animals in each group and the mean and standard deviation of the mean in each case on day 5 of the experiment are shown. […] Table 1. Percentage distribution of tumor volume of the animals in each group.
1x10^6 P3X63 myeloma cells were implanted subcutaneously into syngeneic BALB/c mice. Animals were randomized, divided into groups of 6-8 and received treatments with vehicle solution (5.6% sucrose, 0.75% L-histidine and 0.5% Tween-20), αGalCer, NGcGM3 d18:1-C24:1 or nanoparticles of OMPC and NGcGM3 d18:1-C24:1 (GlycoVax 24:1) on days 1, 5 and 9.
Subcutaneous tumor diameters were measured every 2-3 days with a caliper and TV was calculated according to the formula: TV (mm^3) = π/6 × major diameter × (minor diameter)^2. […]

Compound	serum IFNγ levels (in vivo activation of iNKT cells) (iNKT cells)	activation of iNKT cell hybridoma (IL-2 secretion) ([1]; 100 ng/ml, same concentration as αGalCer)	activation of iNKT cell hybridoma (IL-2 secretion) ([1]; 0.1, 1 and 10 µg/ml on bmDC 16-24 h, co-culture 24 h, Figure 6)	activation of iNKT cell hybridoma (IL-2 secretion) ([1]; highest concentration tested, 10 µg/ml, αGalCer reference at 100 ng/ml)	iNKT cell activation (IL-2 secretion) compared with GM3 d18:1-C24:1 ([1]; Example 8, 10 µg/ml and 1 µg/ml, Figure 8)	antimetastatic effect (liver weight, hepatic metastatic spread) (EL-4 thymoma cells [2]; 2x10^5 EL-4 i.v., 200 µg i.p. on days 1, 5 and 9, livers weighed 12-13 days after inoculation, Figure 2)	anti-metastatic effect (liver weight), NK and NKT cell populations not affected (EL-4 thymoma cells [2]; Example 18, 200 µg i.p. on days 1, 5 and 9 + PBS)	anti-metastatic effect (liver weight) after depletion of NK and NKT cells (EL-4 thymoma cells [2]; Example 18, 200 µg i.p. on days 1, 5 and 9 + anti-NK1.1 Mab, Figure 18a)	anti-metastatic effect (liver weight) after depletion of NK cells only (EL-4 thymoma cells [2]; Example 18, 200 µg i.p. on days 1, 5 and 9 + anti-asialoGM1 antibody, Figure 18b)	survival of EL-4 tumor-bearing animals (EL-4 thymoma cells [3])	TV < 36 mm^3 (percentage distribution of tumor volume of the animals) (P3X63 myeloma cells) [%]	TV > 36 mm^3 (percentage distribution of tumor volume of the animals) (P3X63 myeloma cells) [%]	TV < 36 mm^3 (percentage distribution of tumor volume of the animals) (P3X63 myeloma cells; listed as NGcGM3 24:1) [%]	growth of subcutaneous tumors (P3X63 myeloma cells)	TV < 36 mm^3 (percentage distribution of tumor volume of animals) (P3X63 myeloma cells) [%]	TV > 36 mm^3 (percentage distribution of tumor volume of animals) (P3X63 myeloma cells) [%]	TV < 36 mm^3 (percentage distribution of tumor volume of animals) (P3X63 myeloma cells; listed as NGcGM3 24:1) [%]	antitumor effect (inhibition of tumor growth vs control group) (P3X63 myeloma cells)
CCCCCCCCCCCCCC=CC(O)C(COC1OC(CO)C(OC2OC(CO)C(O)C(OC3(C(=O)O)CC(O)C(NC(=O)CO)C(C(O)C(O)CO)O3)C2O)C(O)C1O)NC(=O)CCCCCCCCCCCCCCCCC (stereo not shown) [NGcGM3 d18:1-C18:0, reference compound]	inactive																	
CCCCCCCCC=CCCCCCCCCCCCCCC(=O)NC(COC1OC(CO)C(OC2OC(CO)C(O)C(OC3(C(=O)O)CC(O)C(NC(=O)CO)C(C(O)C(O)CO)O3)C2O)C(O)C1O)C(O)C=CCCCCCCCCCCCCC [NGcGM3 d18:1-C24:1, O-[3,5-didesoxy-5-hydroxyacetamido-D-glycero-α-D-galacto-2-nonupyranosyl-(2→3)-O-(β-D-galactopyranosyl)-(1→4)-β-D-glucopyranosyl-(1→1)-(2R,3S,4E)-2-tetracos-15-enamido-4-octadecene-1,3-diol]	higher than in the rest of the experimental groups	able to activate iNKT cells	potent activation of FF13 hybridoma cells	surpass the effect of αGalCer	more potent effect on iNKT cell activation than the GM3 variant	statistically significant antimetastatic effect	is present	abolishes the aforementioned anti-tumor effect	the antitumor effect is maintained	significantly increased the survival	50	50	50	significantly inhibited the growth of subcutaneous tumors	50	50	50	significant inhibition of tumor growth
CCCCCCCCCCCCCCCCCCCCCCCCCC(=O)N[C@@H](CO[C@H]1O[C@H](CO)[C@H](O)[C@H](O)[C@H]1O)[C@H](O)[C@H](O)CCCCCCCCCCCCCC [αGalCer, α-galactosylceramide, reference compound]											25	75		significantly inhibited the growth of subcutaneous tumors	25	75		did not show a statistically significant antitumor effect
